Test results from ChEMBL document CHEMBL5370643, “Discovery of MK-1468: A Potent, Kinome-Selective, Brain-Penetrant Amidoisoquinoline LRRK2 Inhibitor for the Potential Treatment of Parkinson's Disease” (J Med Chem, 2023).

What was measured:
[1] = Toxicity in Wistar-Han rat assessed as effect on spontaneous locomotor activity at 225 mg/kg, po administered as single dose and measured upto 24 hrs by telemetric analysis; type: organism-based; details: in vivo
[2] = AUCtau in Wistar-Han rat at 48 mg administered twice a day by LC-MS/MS analysis; type: ADME; parameters: dose 48 mg; details: in vivo
[3] = biological target: Leucine-rich repeat serine/threonine-protein kinase 2 (Homo sapiens, UniProt Q5S007, G2019S); test: Inhibition of recombinant N-terminal GST-fused LRRK2 […] mutant (970 to 2527 residues) (unknown origin) using LRRKtide peptide as substrate assessed as inhibition of substrate phosphorylation preincubated with compound for 15 mins followed by substrate addition and measured after 90 mins in presence of ATP by TR-FRET assay
Chain of Leucine-rich repeat serine/threonine-protein kinase 2 (Q5S007 whole entry G2019S, the tested form may be a part): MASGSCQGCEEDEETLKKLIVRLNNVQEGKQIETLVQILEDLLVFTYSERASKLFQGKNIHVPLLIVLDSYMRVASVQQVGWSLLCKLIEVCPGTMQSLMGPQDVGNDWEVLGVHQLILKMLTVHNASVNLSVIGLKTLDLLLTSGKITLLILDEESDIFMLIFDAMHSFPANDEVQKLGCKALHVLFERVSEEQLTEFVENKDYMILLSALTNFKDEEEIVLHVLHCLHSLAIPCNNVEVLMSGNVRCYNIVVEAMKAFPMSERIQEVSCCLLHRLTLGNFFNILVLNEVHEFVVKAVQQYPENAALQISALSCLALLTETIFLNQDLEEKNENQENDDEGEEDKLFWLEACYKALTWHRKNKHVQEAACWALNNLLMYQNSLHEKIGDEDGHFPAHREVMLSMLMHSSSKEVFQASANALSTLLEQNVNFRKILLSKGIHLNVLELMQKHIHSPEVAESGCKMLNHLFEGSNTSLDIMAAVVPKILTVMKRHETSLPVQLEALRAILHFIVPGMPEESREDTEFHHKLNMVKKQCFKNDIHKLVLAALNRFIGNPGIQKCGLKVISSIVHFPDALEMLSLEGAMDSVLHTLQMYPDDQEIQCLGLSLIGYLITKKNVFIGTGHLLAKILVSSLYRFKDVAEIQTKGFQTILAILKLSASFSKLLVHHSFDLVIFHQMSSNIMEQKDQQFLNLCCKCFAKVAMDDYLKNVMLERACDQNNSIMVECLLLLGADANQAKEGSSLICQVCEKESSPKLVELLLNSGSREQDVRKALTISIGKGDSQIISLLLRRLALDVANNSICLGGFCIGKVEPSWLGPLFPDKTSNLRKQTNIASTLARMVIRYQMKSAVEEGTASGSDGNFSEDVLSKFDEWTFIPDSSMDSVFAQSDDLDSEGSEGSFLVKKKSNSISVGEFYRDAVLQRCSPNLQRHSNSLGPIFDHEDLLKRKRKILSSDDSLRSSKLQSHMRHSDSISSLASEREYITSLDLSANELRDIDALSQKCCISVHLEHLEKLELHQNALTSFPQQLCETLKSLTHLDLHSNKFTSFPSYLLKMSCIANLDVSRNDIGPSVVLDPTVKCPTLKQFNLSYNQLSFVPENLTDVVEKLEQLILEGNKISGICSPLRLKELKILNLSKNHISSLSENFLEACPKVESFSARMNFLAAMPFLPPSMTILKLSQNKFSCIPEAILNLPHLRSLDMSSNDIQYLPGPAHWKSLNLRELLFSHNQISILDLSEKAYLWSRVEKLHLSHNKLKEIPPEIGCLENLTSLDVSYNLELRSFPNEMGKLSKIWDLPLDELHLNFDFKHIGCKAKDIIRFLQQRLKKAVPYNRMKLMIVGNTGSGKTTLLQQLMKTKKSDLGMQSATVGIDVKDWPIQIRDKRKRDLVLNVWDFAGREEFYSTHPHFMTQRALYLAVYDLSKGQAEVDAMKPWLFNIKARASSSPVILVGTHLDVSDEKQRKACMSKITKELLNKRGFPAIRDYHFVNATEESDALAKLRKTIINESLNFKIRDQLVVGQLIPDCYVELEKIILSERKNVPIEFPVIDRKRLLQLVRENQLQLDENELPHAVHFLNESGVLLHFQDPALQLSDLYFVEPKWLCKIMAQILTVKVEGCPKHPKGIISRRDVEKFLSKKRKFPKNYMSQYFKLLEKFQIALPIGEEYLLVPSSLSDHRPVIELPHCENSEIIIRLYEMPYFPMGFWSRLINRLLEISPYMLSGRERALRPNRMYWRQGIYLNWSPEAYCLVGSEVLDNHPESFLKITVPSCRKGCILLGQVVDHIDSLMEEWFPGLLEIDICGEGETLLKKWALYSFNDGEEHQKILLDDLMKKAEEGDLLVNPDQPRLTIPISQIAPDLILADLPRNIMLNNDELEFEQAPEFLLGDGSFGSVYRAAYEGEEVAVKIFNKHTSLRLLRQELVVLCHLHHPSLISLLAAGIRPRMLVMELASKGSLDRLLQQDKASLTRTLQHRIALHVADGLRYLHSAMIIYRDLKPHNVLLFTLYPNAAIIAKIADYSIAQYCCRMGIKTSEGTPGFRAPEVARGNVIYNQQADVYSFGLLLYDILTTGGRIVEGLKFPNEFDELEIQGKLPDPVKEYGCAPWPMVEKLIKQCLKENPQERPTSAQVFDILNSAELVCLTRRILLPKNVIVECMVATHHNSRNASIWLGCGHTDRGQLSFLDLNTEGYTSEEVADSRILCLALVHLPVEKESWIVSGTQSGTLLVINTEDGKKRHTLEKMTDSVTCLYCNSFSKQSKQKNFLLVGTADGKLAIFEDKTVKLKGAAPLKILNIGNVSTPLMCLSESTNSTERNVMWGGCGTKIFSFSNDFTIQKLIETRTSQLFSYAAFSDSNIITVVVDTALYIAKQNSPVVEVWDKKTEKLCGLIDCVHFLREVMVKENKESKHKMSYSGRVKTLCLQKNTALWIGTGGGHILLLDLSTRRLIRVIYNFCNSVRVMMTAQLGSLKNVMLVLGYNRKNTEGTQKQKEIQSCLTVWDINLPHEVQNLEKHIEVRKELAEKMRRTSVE

[4] = Toxicity in Wistar-Han rat assessed as degeneration of seminiferous epithelium in testes at 750 mg/kg, po administered once daily for 7 days; type: organism-based; details: in vivo, 168 h, time 7 day
[5] = Toxicity in po dosed Wistar-Han rat assessed as NOAEL measured upto 24 hrs; type: organism-based; details: in vivo, read-out: Activity
[6] = Toxicity in Wistar-Han rat assessed as effect on body temperature at 60 mg/kg, po administered as single dose and measured upto 24 hrs by telemetric analysis; type: organism-based; details: in vivo
[7] = Toxicity in Wistar-Han rat assessed as histopathological change at 750 mg/kg, po administered once daily for 7 days; type: organism-based; details: in vivo, 168 h, time 7 day
hERG = hERG (Homo sapiens, UniProt Q12809); test: Inhibition of hERG expressed in CHO cells at 10 uM by QPatch voltage clamp assay relative to control; type: toxicity, cell-based; details: CHO cells expressing hERG
[8] = Cardiotoxicity in guinea pig assessed as effect on PR interval at 5 to 20 mg/kg, iv administered continuously for 20 min by ECG analysis; type: toxicity, organism-based, Cavia porcellus; details: in vivo, dose 5-20 mg/kg
hERG (KCNH2) = hERG (KCNH2) (Homo sapiens, UniProt Q12809); test: Inhibition of hERG expressed in CHO cells at 30 uM by QPatch voltage clamp assay relative to control; type: toxicity, cell-based; details: CHO cells expressing hERG
rat Mdrl1 P-gp = test: Efflux ratio of apparent permeability across basolateral to apical over apical to basolateral side in MDCK cells transfected with rat Mdrl1 P-gp incubated for 3 hrs by LC-MS/MS analysis; details: dog, MDCK-MDR1
[9] = Genotoxicity in CHO-WBL cells incubated for 3 to 24 hrs in presence or absence of rat liver S9 fraction by micronucleus assay; type: toxicity, Cricetulus griseus; details: chinese hamster, time 3-24 hrs
[10] = Protein binding in rhesus monkey plasma incubated for 4 hrs by equilibrium dialysis method; type: ADME, cell-free, Macaca mulatta; details: read-out: PPB (converted)
[11] = AUC (0 to 24 hrs) in Wistar-Han rat at 48 mg administered twice a day by LC-MS/MS analysis; type: ADME; parameters: dose 48 mg; details: in vivo
[12] = Toxicity in Wistar-Han rat assessed as effect on body temperature at 225 mg/kg, po administered as single dose and measured upto 24 hrs by telemetric analysis; type: organism-based; details: in vivo
[13] = AUC in rhesus monkey at 100 mg/kg, po administered once daily for 7 days; type: ADME, organism-based, Macaca mulatta; parameters: dose 100 mg/kg, time 7 day, route po; details: in vivo
[14] = MRT in Beagle dog at 0.5 mg/kg, iv measured after 24 hrs by LC-MS/MS analysis; type: ADME, organism-based, Canis lupus familiaris; details: in vivo
Nav1.5 (SCN5A) = Nav1.5 (SCN5A) (Homo sapiens, UniProt Q14524); test: Inhibition of human Nav1.5 expressed in HEK293 cells at 10 uM by QPatch voltage clamp assay relative to control; type: cell-based; details: HEK293 cells expressing human Nav1.5
Chain of Nav1.5 (SCN5A) (Q14524 whole entry): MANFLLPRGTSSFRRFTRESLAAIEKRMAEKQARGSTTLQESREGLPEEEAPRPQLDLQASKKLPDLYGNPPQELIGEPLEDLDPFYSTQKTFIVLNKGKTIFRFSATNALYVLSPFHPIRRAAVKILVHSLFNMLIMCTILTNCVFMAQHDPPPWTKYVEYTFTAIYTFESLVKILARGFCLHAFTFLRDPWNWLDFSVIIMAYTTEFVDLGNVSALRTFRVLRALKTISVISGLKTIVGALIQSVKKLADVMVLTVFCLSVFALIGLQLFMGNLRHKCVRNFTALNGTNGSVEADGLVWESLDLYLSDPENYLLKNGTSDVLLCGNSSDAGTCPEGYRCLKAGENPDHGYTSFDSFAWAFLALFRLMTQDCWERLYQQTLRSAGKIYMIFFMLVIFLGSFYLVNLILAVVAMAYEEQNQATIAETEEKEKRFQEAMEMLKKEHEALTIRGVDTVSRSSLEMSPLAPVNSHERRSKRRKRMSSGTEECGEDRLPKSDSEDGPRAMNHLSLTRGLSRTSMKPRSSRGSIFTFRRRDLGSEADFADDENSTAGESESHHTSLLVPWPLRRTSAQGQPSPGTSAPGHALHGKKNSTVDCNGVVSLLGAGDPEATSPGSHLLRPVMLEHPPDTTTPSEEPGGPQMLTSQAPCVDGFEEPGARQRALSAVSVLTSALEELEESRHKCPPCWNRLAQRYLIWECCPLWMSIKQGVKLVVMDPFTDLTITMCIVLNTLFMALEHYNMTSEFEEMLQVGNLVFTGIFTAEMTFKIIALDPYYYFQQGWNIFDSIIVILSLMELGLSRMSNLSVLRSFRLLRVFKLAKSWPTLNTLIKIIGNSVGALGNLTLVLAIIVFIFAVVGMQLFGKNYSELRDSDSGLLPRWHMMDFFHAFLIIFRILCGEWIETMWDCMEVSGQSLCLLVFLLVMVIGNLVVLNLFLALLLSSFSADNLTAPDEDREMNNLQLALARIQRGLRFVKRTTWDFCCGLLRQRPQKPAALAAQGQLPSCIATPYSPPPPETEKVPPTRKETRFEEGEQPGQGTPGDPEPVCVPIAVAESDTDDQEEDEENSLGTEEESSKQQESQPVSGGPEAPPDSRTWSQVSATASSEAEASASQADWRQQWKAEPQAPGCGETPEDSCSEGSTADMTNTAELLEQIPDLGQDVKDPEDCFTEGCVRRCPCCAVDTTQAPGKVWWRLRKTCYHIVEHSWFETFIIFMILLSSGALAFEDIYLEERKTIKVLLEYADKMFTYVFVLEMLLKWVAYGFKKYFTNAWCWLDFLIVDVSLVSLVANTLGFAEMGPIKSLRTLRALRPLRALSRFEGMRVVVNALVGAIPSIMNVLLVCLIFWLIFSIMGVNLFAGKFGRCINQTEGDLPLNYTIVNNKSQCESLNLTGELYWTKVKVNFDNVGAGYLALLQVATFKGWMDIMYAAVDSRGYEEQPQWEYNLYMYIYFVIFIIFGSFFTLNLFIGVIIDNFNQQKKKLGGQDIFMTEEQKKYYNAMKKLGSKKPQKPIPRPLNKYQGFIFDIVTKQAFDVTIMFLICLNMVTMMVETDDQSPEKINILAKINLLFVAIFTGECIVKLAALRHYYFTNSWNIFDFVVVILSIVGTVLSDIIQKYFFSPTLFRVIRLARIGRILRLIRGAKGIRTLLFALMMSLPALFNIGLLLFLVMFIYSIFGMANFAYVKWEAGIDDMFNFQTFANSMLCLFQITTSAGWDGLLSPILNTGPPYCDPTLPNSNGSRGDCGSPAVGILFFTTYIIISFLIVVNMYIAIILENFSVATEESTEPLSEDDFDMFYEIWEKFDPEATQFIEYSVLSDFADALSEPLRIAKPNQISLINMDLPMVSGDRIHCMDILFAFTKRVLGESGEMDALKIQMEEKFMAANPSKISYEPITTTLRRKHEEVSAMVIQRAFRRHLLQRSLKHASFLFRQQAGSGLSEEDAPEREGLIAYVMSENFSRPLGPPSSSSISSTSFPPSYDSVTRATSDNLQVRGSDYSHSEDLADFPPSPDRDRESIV

[15] = Oral bioavailability in Wistar-Han rat at 5 mg/kg measured after 24 hrs by LC-MS/MS analysis; type: ADME, organism-based; details: in vivo
Brain = test: In vivo inhibition of LRRK2 in Wistar-Han rat assessed as reduction in Ser935 phosphorylation in brain at 1 to 100 mg/kg, po measured after 2 hrs; type: functional; details: dose 1-100 mg/kg
[16] = Mutagenicity in Salmonella typhimurium TA98 at 30 to 5000 ug/plate incubated for 48 hrs in absence of Wistar-Han rat S9 fraction by Ames test; type: toxicity; details: salmonella enterica subsp. enterica serovar typhimurium, s9, 48 h
[17] = In vivo inhibition of LRRK2 in rhesus monkey assessed as reduction in Ser935 phosphorylation in brain at 100 to 800 mg/kg, po administered once daily for 7 days; type: functional, Macaca mulatta; details: dose 100-800 mg/kg, time 7 day
[18] = Genotoxicity in human TK6 cells assessed as induction of DNA damage upto 31.9 uM; type: toxicity, cell-based; details: tk6, 31.9 µM
[19] = AUC in rhesus monkey at 200 mg/kg, po administered once daily for 7 days; type: ADME, organism-based, Macaca mulatta; parameters: dose 200 mg/kg, time 7 day, route po; details: in vivo
[20] = Protein binding in rat plasma incubated for 4 hrs by equilibrium dialysis method; type: ADME, cell-free; details: read-out: PPB (converted)
[21] = biological target: KCNQ1/KCNE1 (IKs, Kv7.1/MinK) (Homo sapiens, UniProt P15382+P51787); test: Inhibition of human KCNQ1/KCNE1 expressed in HEK293 cells at 30 uM by QPatch voltage clamp assay relative to control; type: cell-based; details: HEK293 cells expressing human KCNQ1/KCNE1
[22] = Toxicity in rhesus monkey assessed as body weight loss at 100 to 800 mg/kg, po administered once daily for 7 days; type: organism-based, Macaca mulatta; details: in vivo, 168 h, dose 100-800 mg/kg, time 7 day
[23] = Toxicity in Wistar-Han rat assessed as clinical observations at 750 mg/kg, po administered once daily for 7 days; type: organism-based; details: in vivo, 168 h, time 7 day
mouse BCRP = test: Efflux ratio of apparent permeability across basolateral to apical over apical to basolateral side in MDCK-II cells transfected with mouse BCRP incubated for 3 hrs by LC-MS/MS analysis; details: dog
[24] = AUC in rhesus monkey at 800 mg/kg, po administered once daily for 7 days; type: ADME, organism-based, Macaca mulatta; parameters: time 7 day, dose 800 mg/kg, route po; details: in vivo
[25] = Intrinsic clearance in rhesus monkey at 3 mg/kg, iv measured after 24 hrs by LC-MS/MS analysis; type: ADME, organism-based, Macaca mulatta; details: in vivo
[26] = Kinetic solubility of compound in PBS at pH 7 measured after 24 hrs by UPLC/DAD analysis; type: physicochemical; details: read-out: Kinetic_solubility
[27] = In vivo inhibition of LRRK2 in rhesus monkey assessed as reduction in Ser935 phosphorylation in blood PBMC at 100 to 800 mg/kg, po administered once daily for 7 days; type: functional, Macaca mulatta; details: dose 100-800 mg/kg, time 7 day
[28] = biological target: Leucine-rich repeat serine/threonine-protein kinase 2 (Homo sapiens) (UniProt Q5S007); test: Inhibition of LRRK2 in human PBMC using LRRKtide peptide as substrate assessed as Ser935 dephosphorylation preincubated with compound for 15 mins followed by substrate addition and measured after 90 mins in presence of ATP by TR-FRET assay; type: cell-based; details: time 105.0 min
Chain of Leucine-rich repeat serine/threonine-protein kinase 2 (Homo sapiens) (Q5S007 whole entry): as the sequence (Q5S007 whole entry G2019S, the tested form may be a part) above, with S2019G counted along it

[29] = Cmax in Wistar-Han rat at 48 mg administered twice a day by LC-MS/MS analysis; type: ADME; parameters: dose 48 mg; details: in vivo
[30] = Protein binding in human plasma incubated for 4 hrs by equilibrium dialysis method; type: ADME, cell-free; details: read-out: PPB (converted)
[31] = Mutagenicity in Salmonella typhimurium TA100 at 30 to 5000 ug/plate incubated for 48 hrs in presence of Wistar-Han rat S9 fraction by Ames test; type: toxicity, subcellular; details: salmonella enterica subsp. enterica serovar typhimurium, s9, 48 h
rat Mdr1a P-gp = test: Apparent permeability across apical to basolateral side in LLC-PK1 cells transfected with rat Mdr1a P-gp incubated for 3 hrs by LC-MS/MS analysis; details: pig

With `C[C@@]1(N2CCN(c3cc4cc(NC(=O)[C@H]5CC56CCOCC6)ncc4cc3Cl)CC2)COC[C@@H]1O` the Activity [1] was “Non-Toxic”, the AUC [2] was 3 µM·h and the IC50 [3] was 0.4 nM. The Activity [4] was “Toxic”, the NOAEL at 24 h [5] was 60 mg/kg and the Activity [6] was “Non-Toxic”. For the same compound, the Activity [7] was “Non-Toxic”, the inhibition at 10 µM (hERG) was 15% and the Activity [8] was “Non-Toxic”. The inhibition at 30 µM (hERG (KCNH2)) was 39%, the efflux ratio at 3 h (rat Mdrl1 P-gp) was 2.1 and the Activity [9] was “Non-Toxic”. The fraction unbound at 4 h [10] was 0.12, the AUC [11] was 6 µM·h and the Activity [12] was “Non-Toxic”. The AUC at 168 h [13] was 14 µM·h, the MRT [14] was 29 h and the inhibition at 10 µM (Nav1.5 (SCN5A)) was 23%. For the same compound, the bioavailability [15] was 56%, the fIC50 (Brain) was 33 nM and the Activity [16] was “Non-Toxic”. The fIC50 [17] was 7 nM, the Activity [18] was “Non-Toxic” and the AUC at 168 h [19] was 25 µM·h. For the same compound, the fraction unbound at 4 h [20] was 0.115, the inhibition at 30 µM [21] was 18% and the Activity [22] was “Non-Toxic”. The Activity [23] was “Non-Toxic”, the efflux ratio at 3 h (mouse BCRP) was 2.6 and the AUC at 168 h [24] was 63 µM·h. It also gave a CL [25] of 736 mL/min/kg, a solubility kinetic at 24 h [26] of under 3 µM and a fIC50 [27] of 4.7 nM. For the same compound, the fIC50 [28] was 2.8 nM, the Cmax [29] was 750 nM and the fraction unbound at 4 h [30] was 0.131. The Activity [31] was “Non-Toxic” and the Papp A→B at 3 h (rat Mdr1a P-gp) was 30 ×10⁻⁶ cm/s.
